{"source": "patent US7119077B1", "about": "“Multimeric forms of members of the steroid/thyroid superfamily of receptors with the ultraspiracle receptor” (The Salk Institute for Biological Studies, priority 1990, dated 2006)", "key": {"EcR/usp [1]": {"target": "T1, EcR/usp (Drosophila melanogaster, UniProt P34021)", "T1 construct": "expressed in transfected cells; host or cells: CV1 monkey kidney cells", "T1 sequence (P34021 1-878)": "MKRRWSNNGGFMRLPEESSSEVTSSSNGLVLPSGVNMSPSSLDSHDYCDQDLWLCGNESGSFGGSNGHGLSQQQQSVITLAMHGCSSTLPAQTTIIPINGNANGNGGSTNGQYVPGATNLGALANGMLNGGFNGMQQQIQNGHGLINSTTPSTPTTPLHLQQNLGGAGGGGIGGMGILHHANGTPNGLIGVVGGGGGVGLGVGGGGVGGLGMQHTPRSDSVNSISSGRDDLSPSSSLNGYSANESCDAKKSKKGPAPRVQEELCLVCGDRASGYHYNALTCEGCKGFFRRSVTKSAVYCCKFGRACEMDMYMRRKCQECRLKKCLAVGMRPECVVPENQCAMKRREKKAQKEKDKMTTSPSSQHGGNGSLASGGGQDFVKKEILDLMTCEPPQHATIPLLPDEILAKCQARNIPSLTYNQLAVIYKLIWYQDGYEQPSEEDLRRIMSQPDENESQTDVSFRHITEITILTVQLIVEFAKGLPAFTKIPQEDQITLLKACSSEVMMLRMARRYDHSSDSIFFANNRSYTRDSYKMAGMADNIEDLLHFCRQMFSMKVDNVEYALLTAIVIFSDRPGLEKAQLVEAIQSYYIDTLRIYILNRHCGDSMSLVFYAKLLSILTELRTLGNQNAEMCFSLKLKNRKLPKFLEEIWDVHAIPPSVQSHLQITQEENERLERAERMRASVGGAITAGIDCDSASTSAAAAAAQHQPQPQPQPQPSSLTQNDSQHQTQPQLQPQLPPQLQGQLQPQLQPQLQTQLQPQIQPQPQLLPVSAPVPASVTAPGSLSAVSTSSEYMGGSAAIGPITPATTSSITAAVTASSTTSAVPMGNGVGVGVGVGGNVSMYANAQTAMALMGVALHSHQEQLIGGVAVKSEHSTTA", "assay": "Cotransfection CAT reporter assay with EcR and/or usp expression vectors in CV1 cells", "type": "cell-based, monkey kidney cells (CV1)", "settings": "CV1 cells transfected with EcR alone, ΔMTV-EcRE5-CAT reporter, 40 μM", "procedure": "(§1) Transfection was performed with calcium-phosphate precipitation method as described previously [Umesono et al., Nature 336:262–264 (1989)]. CV1 monkey kidney cells were maintained in Dulbecco's modified Eagle's medium (DMEM) supplemented with 10% calf bovine serum. The cells were transfected for 8–9 hours and then the DNA precipitates were washed away and replaced with fresh medium with 10% charcoal-resin double stripped fetal bovine serum. 20-hydroxy-ecdysone (Sigma; 10 mg/ml in ethanol), or ethanol alone was then given to the cells. 24–28 hours later, the cells were harvested. Beta-galactosidase (βGal) activity was measured and a normalized amount of extract was used for CAT assay (Umesono et al. (1989) supra]. The following amount of plasmid DNA was included in the 10 cm plate transfection: 250 ng each of CMX-EcR and RSV-GEcR; 500 ng of CMX-usp; 5 μg ΔMTV-EcRE5-CTA; 5 μg of βGal internal control plasmid CH111 (a derivative of CH110, Promega). The amount of CMX plasmid was kept constant in each transfection by adding CMX-luciferase. PGEM4 was added to bring the total amount of plasmid DNA to 15 μg per plate.\n(§2) Ecdysone response in CV1 cells was determined by using an ecdysone-responsive reporter gene (ΔMTV-EcRE5-CAT), which contains the same core hsp27-EcRE motif tested in DNA binding assay described earlier. The chloramphenicol acetyl transferase (CAT) activity induced by ecdysone was measured in the presence of different combinations of transfected EcR and usp expression vectors. CAT activity is expressed in FIG. 2 as the percentage of conversion which is normalized against the level in EcR alone at the presence of ecdysone assigned as one (column 1, shaded rectangle). The final concentration of 20-hydroxy-ecdysone (Sigma) is 40 μM. […] Cotransfection of EcR and usp together is shown in column 3 and the induction of CAT activity could be observed by about 3 fold.\n(§3) To test whether usp can complement the EcR activity as it did in the DNA binding assay, usp expression vector was cotransfected with EcR into CV1 cells. Cotransfection of usp with EcR indeed was able to confer a significant response to 20-OH-ecdysone (over 3 fold, FIG. 2A). […] The level of induction by EcR and usp in CV1 cells is significant but somewhat lower than expected compared with the interaction in DNA binding assay."}, "EcR/usp [2]": {"tested_on": "EcR/usp", "assay": "Cotransfection CAT reporter assay with EcR and/or usp expression vectors in CV1 cells", "type": "cell-based, monkey kidney cells (CV1)", "settings": "40 μM", "procedure": "as §1, §2, §3"}}, "note": "Entries after “also recorded” stand apart in the source; their conditions may differ."}
{"substance": "20-Hydroxyecdysone [20-OH-ecdysone]", "values": [{"measurement": "ecdysone responsiveness (CAT activity)", "setting": "EcR/usp [1]", "result": "does not respond"}, {"measurement": "ecdysone responsiveness (CAT activity)", "setting": "EcR/usp [1]; listed as 20-hydroxy-ecdysone", "result": "failed to confer responsiveness"}, {"measurement": "ecdysone responsiveness (CAT activity)", "setting": "EcR/usp [2]; CV1 cells transfected with usp alone, ΔMTV-EcRE5-CAT reporter", "result": "does not respond; also recorded: did not result in ecdysone responsiveness"}, {"measurement": "ecdysone responsiveness (CAT activity)", "setting": "EcR/usp [2]; CV1 cells, parental ΔMTV-CAT reporter without EcRE", "result": "did not result in ecdysone responsiveness"}, {"measurement": "ecdysone responsiveness (CAT activity)", "setting": "EcR/usp [2]; CV1 cells, parental ΔMTV-CAT reporter without EcRE, listed as ecdysone", "result": "does not respond"}]}
